Measured values taken from patent US11981883B2, “Composition containing 1,2-dichloro-3,3,3-trifluoropropene” (DAIKIN INDUSTRIES, LTD., priority 2018, dated 2024).

System: rats
Assay: 4-hour single-inhalation exposure test (OECD Guideline No. 436)
Format: in vivo
Protocol: A 4-hour single-inhalation exposure test was performed on rats by using a mist of HCFO-1223xd according to the OECD Guideline No. 436.

## FC(F)(F)C(Cl)=CCl [HCFO-1223xd, 1,2-dichloro-3,3,3-trifluoropropene]
4-hour single inhalation, mist at a concentration of 5 mg/L
  death of rats on inhalation exposure: No death of the rats was observed
4-hour single-inhalation exposure, OECD Guideline No. 436
  acute toxicity: low acute toxicity
